The record followed here is ChEMBL document CHEMBL4376821, “Recent Developments in Therapeutic Peptides for the Glucagon-like Peptide 1 and 2 Receptors” (J Med Chem, 2020).

Non-standard residues stand in square brackets, D forms with d. Residues, ends and D or L forms follow the SMILES beside them. *: point of attachment. Palmitoyl = CCCCCCCCCCCCCCCC(=O)*; Nle = CCCC[C@H](N)C(=O)O Bounds are passed on as bounds.

A short description of data set [1]: Half life in human plasma. Type of data set: ADME, cell-free.
For data set [2], the target named is Glucagon-like peptide 1 receptor (Homo sapiens, UniProt P43220). Briefly: Agonist activity at human GLP-1 receptor expressed in CHO-K1 cells assessed as cAMP induction by FRET assay. Type of data set: functional, cell-based.
Data set [3] deals with T1, Glucagon-like peptide 2 receptor (Homo sapiens, UniProt O95838).
T1 sequence (O95838 whole entry): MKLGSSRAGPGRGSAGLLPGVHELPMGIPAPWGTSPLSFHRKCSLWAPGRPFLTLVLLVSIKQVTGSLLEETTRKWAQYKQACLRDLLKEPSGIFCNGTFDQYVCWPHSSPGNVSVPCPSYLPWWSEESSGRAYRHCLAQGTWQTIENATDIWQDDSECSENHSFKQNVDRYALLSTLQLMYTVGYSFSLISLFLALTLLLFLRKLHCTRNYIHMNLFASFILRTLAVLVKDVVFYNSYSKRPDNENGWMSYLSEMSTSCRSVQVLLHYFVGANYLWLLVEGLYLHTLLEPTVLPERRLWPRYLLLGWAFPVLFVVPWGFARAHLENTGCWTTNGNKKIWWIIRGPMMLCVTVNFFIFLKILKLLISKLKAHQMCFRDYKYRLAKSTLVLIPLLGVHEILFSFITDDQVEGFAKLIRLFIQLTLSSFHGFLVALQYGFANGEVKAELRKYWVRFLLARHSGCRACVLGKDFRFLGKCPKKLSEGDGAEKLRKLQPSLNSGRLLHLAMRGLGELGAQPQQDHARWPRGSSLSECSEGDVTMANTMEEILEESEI
Briefly: Agonist activity at human GLP-2 receptor expressed in CHO-K1 cells assessed as cAMP induction by FRET assay. Type of data set: functional, cell-based.

Data set [4] in a line: Half life in C57BL/6J mouse at 800 nmol/kg, sc measured up to 24 hrs by LC-MS/MS analysis. Type of data set: ADME, organism-based. The settings on record: in vivo.
Data set [5] in a line: Clearance in Sprague-Dawley rat at 0.2 mg/kg, iv. Type of data set: ADME, organism-based. The settings on record: in vivo.
Data set [6] can be described thus: Terminal half life in cynomolgus monkey at 0.25 mg/kg, sc. The settings on record: in vivo, read-out: beta t1/2. Type of data set: ADME, organism-based, Macaca fascicularis.
Data set [7] in a line: Half-life in Yucatan mini-pig at 0.15 mg, sc. The class given is ADME, Sus scrofa domesticus. The settings on record: in vivo.
Data set [8] can be described thus: Half life in human at 15 mg, sc qd measured on day 8 by liquid chromatography/tandem mass spectrometry method. The class given is ADME, organism-based. Conditions: in vivo.
A short description of data set [9]: Half life in human. Type of data set: ADME.
For another data set, the species on record is Homo sapiens. Briefly: Induction of plasma citrulline level in human. The class given is functional.
Data set [10] in a line: Half life in human plasma at 0.5 mg for 4 weeks followed by 0.5 mg for 4 weeks and subsequently 1 mg for weeks administered subcutaneously once weekly and measured up to 840 hrs post last dose by LC-MS/MS analysis. Conditions: sc. The class given is ADME.

Glucagon-like peptide 1 receptor, sequence (P43220 whole entry): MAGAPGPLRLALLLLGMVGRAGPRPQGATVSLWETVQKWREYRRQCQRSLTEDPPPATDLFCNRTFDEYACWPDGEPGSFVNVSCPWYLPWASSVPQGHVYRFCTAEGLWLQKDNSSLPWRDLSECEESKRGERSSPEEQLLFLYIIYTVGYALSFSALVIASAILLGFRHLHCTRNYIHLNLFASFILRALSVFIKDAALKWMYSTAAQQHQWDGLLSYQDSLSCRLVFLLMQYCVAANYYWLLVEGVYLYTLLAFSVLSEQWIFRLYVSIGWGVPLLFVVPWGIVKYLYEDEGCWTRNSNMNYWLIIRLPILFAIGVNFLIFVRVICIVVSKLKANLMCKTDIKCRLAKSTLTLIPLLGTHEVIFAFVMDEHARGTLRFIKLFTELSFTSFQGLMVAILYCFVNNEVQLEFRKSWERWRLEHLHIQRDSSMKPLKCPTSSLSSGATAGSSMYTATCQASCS

In data set [1], `CC[C@H](C)[C@H](NC(=O)[C@H](Cc1ccccc1)NC(=O)[C@H](CCC(=O)O)NC(=O)[C@H](CCCCN)NC(=O)[C@H](C)NC(=O)[C@H](C)NC(=O)[C@H](CCC(N)=O)NC(=O)CNC(=O)[C@H](CCC(=O)O)NC(=O)[C@H](CC(C)C)NC(=O)[C@H](Cc1ccc(O)cc1)NC(=O)[C@H](CO)NC(=O)[C@H](CO)NC(=O)[C@@H](NC(=O)[C@H](CC(=O)O)NC(=O)[C@H](CO)NC(=O)[C@@H](NC(=O)[C@H](Cc1ccccc1)NC(=O)[C@@H](NC(=O)CNC(=O)[C@H](CCC(=O)O)NC(=O)[C@H](C)NC(=O)[C@@H](N)Cc1cnc[nH]1)[C@@H](C)O)[C@@H](C)O)C(C)C)C(=O)N[C@@H](C)C(=O)N[C@@H](Cc1c[nH]c2ccccc12)C(=O)N[C@@H](CC(C)C)C(=O)N[C@H](C(=O)N[C@@H](CCCCN)C(=O)NCC(=O)N[C@@H](CCCNC(=N)N)C(=O)O)C(C)C` returned a half-life of less than 2 min.

In the case of `CCCCCCCCCCCCCCCC(=O)NCCCC[C@H](NC(=O)[C@H](Cc1ccc(O)cc1)NC(=O)[C@@H](NC(=O)[C@H](CO)NC(=O)[C@H](CC(C)C)NC(=O)[C@H](CCC(=O)O)NC(=O)[C@H](CO)NC(=O)[C@@H](NC(=O)[C@H](Cc1ccccc1)NC(=O)[C@H](CO)NC(=O)CNC(=O)[C@H](CC(=O)O)NC(=O)CNC(=O)[C@@H](N)Cc1cnc[nH]1)[C@@H](C)O)[C@@H](C)O)C(=O)N[C@@H](CC(=O)O)C(=O)N[C@@H](C)C(=O)N[C@@H](CC(C)C)C(=O)N[C@@H](C)C(=O)N[C@@H](C)C(=O)N[C@@H](CCCNC(=N)N)C(=O)N[C@@H](CC(=O)O)C(=O)N[C@@H](Cc1ccccc1)C(=O)N[C@H](C(=O)N[C@@H](C)C(=O)N[C@@H](Cc1c[nH]c2ccccc12)C(=O)N[C@@H](CC(C)C)C(=O)N[C@H](C(=O)N[C@@H](CCC(N)=O)C(=O)N[C@H](C(=O)N[C@@H](CCCCN)C(=O)N[C@H](C(=O)N[C@H](C(=O)N[C@@H](CC(=O)O)C(N)=O)[C@@H](C)O)[C@@H](C)CC)[C@@H](C)O)[C@@H](C)CC)[C@@H](C)CC` (H-HGDGSFTSELSTYK(Palmitoyl)DALAARDFIAWLIQTKITD-NH2), the half-maximal effective concentration (EC50) (in general, the concentration that produces a half-maximal response) in data set [2] was determined as 0.17 nM; in data set [3], 1 nM. The same compound gave a half-life in [4] of 2.7 h.

`CCCC[C@H](NC(=O)[C@H](CCC(=O)O)NC(=O)[C@H](CC(=O)O)NC(=O)[C@H](CO)NC(=O)[C@H](Cc1ccccc1)NC(=O)[C@H](CO)NC(=O)CNC(=O)[C@H](CC(=O)O)NC(=O)CNC(=O)[C@@H](N)Cc1cnc[nH]1)C(=O)N[C@H](Cc1ccccc1)C(=O)N[C@H](C(=O)N[C@H](C(=O)N[C@@H](CC(C)C)C(=O)N[C@@H](CC(=O)O)C(=O)N[C@@H](CC(C)C)C(=O)N[C@@H](CC(C)C)C(=O)N[C@@H](C)C(=O)N[C@@H](C)C(=O)N[C@@H](CCCNC(=N)N)C(=O)N[C@@H](CC(=O)O)C(=O)N[C@@H](Cc1ccccc1)C(=O)N[C@H](C(=O)N[C@@H](CC(N)=O)C(=O)N[C@@H](Cc1c[nH]c2ccccc12)C(=O)N[C@@H](CC(C)C)C(=O)N[C@H](C(=O)N[C@@H](CCC(N)=O)C(=O)N[C@H](C(=O)N[C@@H](CCCCN)C(=O)N[C@H](C(=O)N[C@H](C(=O)N[C@@H](CC(=O)O)C(N)=O)[C@@H](C)O)[C@@H](C)CC)[C@@H](C)O)[C@@H](C)CC)[C@@H](C)CC)[C@@H](C)CC)[C@@H](C)O` [FE 203799] (H-HGDGSFSDE[Nle][dF]TILDLLAARDFINWLIQTKITD-NH2): the clearance (in general, the volume of plasma or blood freed of the substance per unit of time) in [5] is less than 0.3 mL/min/kg. Also, the half-life in [6] and in data set [7] was more than 30 h each time.

Compound `CC[C@H](C)[C@H](NC(=O)[C@H](Cc1ccccc1)NC(=O)[C@H](CC(=O)O)NC(=O)[C@H](CCCNC(=N)N)NC(=O)[C@H](C)NC(=O)[C@H](C)NC(=O)[C@H](CC(C)C)NC(=O)[C@H](CC(N)=O)NC(=O)[C@H](CC(=O)O)NC(=O)[C@H](CC(C)C)NC(=O)[C@@H](NC(=O)[C@@H](NC(=O)[C@H](CC(N)=O)NC(=O)[C@H](CCSC)NC(=O)[C@H](CCC(=O)O)NC(=O)[C@H](CC(=O)O)NC(=O)[C@H](CO)NC(=O)[C@H](Cc1ccccc1)NC(=O)[C@H](CO)NC(=O)CNC(=O)[C@H](CC(=O)O)NC(=O)CNC(=O)[C@@H](N)Cc1c[nH]cn1)[C@@H](C)O)[C@@H](C)CC)C(=O)N[C@@H](CC(N)=O)C(=O)N[C@@H](Cc1c[nH]c2ccccc12)C(=O)N[C@@H](CC(C)C)C(=O)N[C@H](C(=O)N[C@@H](CCC(N)=O)C(=O)N[C@H](C(=O)N[C@@H](CCCCN)C(=O)N[C@H](C(=O)N[C@H](C(=O)N[C@@H](CC(=O)O)C(=O)O)[C@@H](C)O)[C@@H](C)CC)[C@@H](C)O)[C@@H](C)CC` [TEDUGLUTIDE] showed a half-life in data set [8] of 2 h.

Turning to H-HGDGSFTSELSTYLDALAARDFIAWLIQTKITD-NH2, the EC50 in [2] turned out to be 0.07 nM; in [3], 0.09 nM. This compound showed a half-life in [4] of 0.9 h.

As to “H-HGEGTFSSELATILDALAARDFIAWLIATKITDKKKKKK-NH2”, the half-life in data set [9] was 50 h. Also, the Activity result in the data set filed under Homo sapiens is recorded as “<=86%”.

In the case of SEMAGLUTIDE, the t1/2 in [10] is 165 h.
